Test results taken from US20180117103A1, “COMPOSITION FOR ANTIOXIDATION AND IMPROVEMENT OF SKIN CONDITIONS” (CELL BIOTECH CO., LTD., priority 2016, published 2018).

Columns and labels:
[1] = test system: superoxide dismutase (SOD); assay: Activity of superoxide dismutase in serum of white rats, colorimetric assay kit (Test Example 2); type: in vivo, white rats (male, SD rats); settings: oral administration for 5 weeks
Description: In order to examine the change in antioxidant activity by administration of probiotics and vitamin C (group G4) according to the present invention, antioxidant enzyme activity and serum vitamin levels were measured in the following manner. Blood was collected from the orbits of the white rats of Example 1. The collected blood was incubated at room temperature for 2 hours, and then centrifuged at 1500×g at 4° C. for 15 minutes to separate sera, and the separated sera were stored at −80° C. until use in experiments. For measurement of the activity of antioxidant enzyme in the separated sera, the activity of superoxide dismutase in the sera was measured using a superoxide dismutase assay kit based on a colorimetry assay, and the results of the measurement are shown in FIG. 1 and Table 3 below.

E. faecium = assay: Distribution of E. faecium in feces of white rats by real-time PCR (Test Example 4); type: in vivo, white rats (male, SD rats); settings: intestinal feces at 5 weeks after oral administration
Description: (§1) In order to examine the change in intestinal microorganisms by administration of probiotics and vitamin C according to the present invention, expression of genesspecific for L. rhamnosus and E. faecium in the test groups (G1 to G4) prepared in Example 1 was measured.
(§2) At 5 weeks after oral administration in Example 1, intestinal feces were isolated from the rats of G1 to G4, and DNA was extracted using an MP bio stool kit according to the manufacturer's protocol. Using the extracted DNA, real-time polymerase chain reaction (PCR) was performed using primers specific for L. rhamnosus and E. faecium. The results are shown in FIGS. 4 and 5 and Tables 6 and 7 below.

[2] = test system: total antioxidant capacity (TAS); assay: Total antioxidant capacity (TAS) in serum of white rats, colorimetric kit (Test Example 2); type: in vivo, white rats (male, SD rats); settings: oral administration for 5 weeks
Description: In order to examine the change in antioxidant activity by administration of probiotics and vitamin C (group G4) according to the present invention, antioxidant enzyme activity and serum vitamin levels were measured in the following manner. Blood was collected from the orbits of the white rats of Example 1. The collected blood was incubated at room temperature for 2 hours, and then centrifuged at 1500×g at 4° C. for 15 minutes to separate sera, and the separated sera were stored at −80° C. until use in experiments. In order to measure the defense system composed of antioxidant vitamins, non-enzymatic antioxidant substances and antioxidant enzymes, which defend against the toxicity of reactive oxygen species and total antioxidant capacity (TAS) values were measured using a kit of measuring antioxidant activity based on a colorimetry assay.

[3] = Weight change of white rats on oral administration of probiotics and vitamin C (Test Example 1); type: in vivo, white rats (male, SD rats); settings: N = 5
Description: In order to verify the effect of a combination of probiotics and vitamin C on anti-aging and the like, 4-week-old white rats (male, SD rats, Saeronbio, Korea) were purchased. Two of the animals were housed in each polypropylene cage and acclimated for one week while they were allowed access to feed and water ad libitum. In addition, the animals were housed at a temperature of 24±2° C. and a relative humidity of 40±20% with a 12-hr light/12-hr dark cycle. During the acclimation period, the health of the rats was checked, and among these rats, animals whose activity was not reduced were selected and used in subsequent tests. […] In order to examine the stability and phenotype of each white rat when the probiotics and the vitamin C were administered to the test animals for 5 weeks in Example 1, the weight change patterns of the white rats during the period from the day before administration to 5 weeks after the start of administration in Example 1 were measured, and the results of the measurement are shown in Table 2 below.

L. rhamnosus = assay: Distribution of L. rhamnosus in feces of white rats by real-time PCR (Test Example 4); type: in vivo, white rats (male, SD rats); settings: intestinal feces at 5 weeks after oral administration
Description: as §1, §2

[4] = Vitamin C levels in sera of white rats by HPLC; type: in vivo; settings: male, SD, rat, 1000 mg/head, serum of white rats, oral administration for 5 weeks, read-out: Vit C (serum vitamin C level), Mean ± SD
Description: Blood was collected from the orbits of the white rats of Example 1. The collected blood was incubated at room temperature for 2 hours, and then centrifuged at 1500×g at 4° C. for 15 minutes to separate sera, and the separated sera were stored at −80° C. until use in experiments.
For measurement of vitamin C levels in the sera of the white rats prepared in Example 1, high-performance liquid chromatography (HPLC) analysis was performed using a vitamin C reagent kit, and the results of the analysis are shown in FIG. 3 and Table 5 below.

concentration at 5 weeks [4]: 32.5 ± 1.29 µM
Structure (SMILES): O=C1O[C@H]([C@@H](O)CO)C(O)=C1O [G3, L-ascorbic acid]
SOD, Mean ± SD [1]: 6.248 ± 0.08967 U/L
E. faecium, Mean ± SD (E. faecium): 7.032 ± 0.1134 Nlog10/1 g feces
TAS, Mean ± SD [2]: 1.568 ± 0.01708 mmol/L
Change in weight, Mean ([3]; 0 week (day before administration), oral): 137.6 g
Change in weight, Mean ([3]; 1 week of oral administration): 178.8 g
Change in weight, Mean ([3]; 2 weeks of oral administration): 237.8 g
Change in weight, Mean ([3]; 3 weeks of oral administration): 293.0 g
Change in weight, Mean ([3]; 4 weeks of oral administration): 338.1 g
Change in weight, Mean ([3]; 5 weeks of oral administration): 354.1 g
L. rhamnosus, Mean ± SD (L. rhamnosus): 7.340 ± 0.09975 Nlog10/1 g feces
